Experiment [1] relates to anesthetized dog. Description: Hemodynamic parameters in the anesthetized dog after intravenous infusion. The conditions noted are these: for effect on the heart rate: doses of 1, 2.5 and 5 μg/kg/min, in words; for Average arterial pressure / Heart rate / Renal art. flow / Renal resistances: measured 5 minutes after infusion, average ± SE. In kind it is in vivo. An excerpt: Dopamine and epinine have been compared after intravenous infusion at different doses in the anesthetized dog.

Experiment [2] concerns electrically stimulated median arteria of rabbit ear. Description: Inhibition of contraction induced by electrical stimulation, median arteria of rabbit ear. The conditions noted are these: for IC50: Oryctolagus cuniculus, concentrations between 0.01 and 10 μM, read-out: ED50 in inhibiting the contraction induced by electrical stimulation.
For experiment [3] the following is noted: less potent than adrenaline; cited from earlier work.

Molecules are shown by their SMILES.

Consider `NCCc1ccc(O)c(O)c1` [dopamine, reference compound], for which the “effect on the heart rate” value in experiment [1] is “slightly increased”. In experiment [1] (infusion 1.00 μg/kg/min), the Average arterial pressure is on record as 106 ± 7 mmHg, the Heart rate stood at 144 ± 10, the Renal art. flow worked out at 127 ± 20.8 mL/min and the Renal resistances amounted to 1.120 ± 0.149 mmHg/ml/min. In experiment [1] (infusion 2.50 μg/kg/min), this molecule had an Average arterial pressure of 105 ± 6 mmHg, a Heart rate of 146 ± 8, a Renal art. flow of 132 ± 21.0 mL/min and a Renal resistances of 1.053 ± 0.146 mmHg/ml/min. In experiment [1] (infusion 5.00 μg/kg/min), this molecule gave an Average arterial pressure of 109 ± 6 mmHg, a Heart rate of 151 ± 8, a Renal art. flow of 122.9 ± 19.8 mL/min and a Renal resistances of 1.136 ± 0.261 mmHg/ml/min. In experiment [2], the IC50 was found to be 2390 nM.

For the molecule `CNCCc1ccc(O)c(O)c1` [epinine, N-methyl-3,4-dihydroxyphenethylamine], the “pressor potency relative to adrenaline” value in experiment [3] is given as “about ten”. Besides, the “effect on the heart rate” value in experiment [1] is reported as “moderate but significant reduction”. Moreover, in experiment [1] (infusion 0.50 μg/kg/min), the Average arterial pressure is 136 ± 9 mmHg, the Heart rate stood at 164 ± 10, the Renal art. flow came out at 153.5 ± 18.5 mL/min and the Renal resistances amounted to 0.990 ± 0.145 mmHg/ml/min. In experiment [1] (infusion 1.00 μg/kg/min), this molecule displayed an Average arterial pressure of 136 ± 8 mmHg, a Heart rate of 161 ± 11, a Renal art. flow of 157.5 ± 28.1 mL/min and a Renal resistances of 0.971 ± 0.185 mmHg/ml/min. In experiment [1] (infusion 2.50 μg/kg/min), this molecule returned an Average arterial pressure of 135 ± 7 mmHg, a Heart rate of 156 ± 12, a Renal art. flow of 159.8 ± 29.3 mL/min and a Renal resistances of 0.954 ± 0.183 mmHg/ml/min. Also, in experiment [1] (infusion 5.00 μg/kg/min), the Average arterial pressure worked out at 139 ± 6 mmHg, the Heart rate was 149 ± 11, the Renal art. flow was 164.3 ± 29.7 mL/min and the Renal resistances worked out at 0.965 ± 0.181 mmHg/ml/min. Also, the IC50 in experiment [2] turned out to be 77 nM. Besides, the “activity relative to dopamine (presynaptic DA2 receptors)” value in experiment [2] (higher than that of dopamine) was found to be 30 times.

The record behind these values is patent US4628064A, “Epinine and the therapeutic use thereof” (SIMES, Societa Italiana Medicinali e Sintetici S.p.A., priority 1983, dated 1986).
